Laboratory results taken from US20220056043A1, “NITROGEN-CONTAINING FUSED CYCLIC COMPOUND, PREPARATION METHOD THEREFOR AND USE THEREOF” (SICHUAN KELUN-BIOTECH BIOPHARMACEUTICAL CO., LTD., priority 2019, published 2022).
pEC50: −log10 of the molar value.

What was measured:
hNLRP3 inflammasome = molecular target: T1, hNLRP3 inflammasome (Homo sapiens, UniProt Q96P20); assay: Agonistic effect on the expression of IL-1β in THP-1 cells after PMA-induced differentiation (HTRF); type: cell-based; conditions: IL-1β level, PMA-differentiated THP-1 cells, 6 hours
T1 construct: endogenous in cells; host or cells: THP-1 cells, PMA-differentiated
From the text: Experimental Example 1: Agonistic Effect of the Compound of the Invention on the Expression of IL-1β in THP-1 Cells after PMA-Induced Differentiation
In this test, a HTRF (homogeneous time-resolved fluorescence) detection method was used to test the effect of the compound of the invention on the level of downstream cytokine IL-1β of NLRP3 to evaluate the agonistic effect of the compound on hNLRP3 inflammasome or hNLRP3 inflammasome pathway at a cellular level.
Reagent: RPMI 1640 (Hyclone); heat-inactivated FBS (fetal bovine serum) (Gibco); PMA (phorbol myristal acetate) (Beyotime)
Kit: IL-1β assay kit (CISIO)
1) THP-1 cells in a logarithmic growth phase were seeded in a T75 culture flask at a density of 5×10^5 cells/well, and cultured in a cell incubator at 37° C., 5% CO2 for 24 hours, and then 1 μM PMA was used to induce THP-1 suspension cells to become adherent macrophages. The medium was RPMI 1640 containing 10% heat-inactivated FBS and 0.05 mM β-mercaptoethanol.
2) The cells were induced and cultured for 24 hours. Then the adherent cells were trypsinized and centrifuged at 1000 rpm for 5 min. The supernatant was removed, and the cells were resuspended to a density of 2×10^6 cells/mL in RPMI 1640 medium containing 2% heat-inactivated FBS. 50 μL/well of cell resuspension was taken and spread on a 96-well plate such that the number of cells in each well was 1×10^5.
3) An appropriate amount of 10 mM DMSO solution of the compound to be tested was taken and diluted to a concentration of 2× test concentration with RPMI 1640 medium containing 2% heat-inactivated FBS. 50 μL/well of the dilution was added to the cells in the 96-well plate, and mixed well. The plate was placed in a cell incubator at 37° C., 5% CO2 for 6 hours. The supernatant was collected, and the level of IL-1β was measured in accordance with the instructions of the IL-1β detection kit.
4) EC50 was fitted by the GraphPad software log(agonist) vs. response—Variable slope four-parameter method.

hTLR7 = molecular target: T2, hTLR7 (Homo sapiens, UniProt Q9NYK1); assay: Agonistic effect on hTLR7, HEK-hTLR7-NF-κB-Luciferase reporter cells; type: cell-based; conditions: 16 hours
T2 construct: host or cells: HEK-hTLR7-NF-κB-Luciferase cells
T2 sequence (Q9NYK1 27-1049): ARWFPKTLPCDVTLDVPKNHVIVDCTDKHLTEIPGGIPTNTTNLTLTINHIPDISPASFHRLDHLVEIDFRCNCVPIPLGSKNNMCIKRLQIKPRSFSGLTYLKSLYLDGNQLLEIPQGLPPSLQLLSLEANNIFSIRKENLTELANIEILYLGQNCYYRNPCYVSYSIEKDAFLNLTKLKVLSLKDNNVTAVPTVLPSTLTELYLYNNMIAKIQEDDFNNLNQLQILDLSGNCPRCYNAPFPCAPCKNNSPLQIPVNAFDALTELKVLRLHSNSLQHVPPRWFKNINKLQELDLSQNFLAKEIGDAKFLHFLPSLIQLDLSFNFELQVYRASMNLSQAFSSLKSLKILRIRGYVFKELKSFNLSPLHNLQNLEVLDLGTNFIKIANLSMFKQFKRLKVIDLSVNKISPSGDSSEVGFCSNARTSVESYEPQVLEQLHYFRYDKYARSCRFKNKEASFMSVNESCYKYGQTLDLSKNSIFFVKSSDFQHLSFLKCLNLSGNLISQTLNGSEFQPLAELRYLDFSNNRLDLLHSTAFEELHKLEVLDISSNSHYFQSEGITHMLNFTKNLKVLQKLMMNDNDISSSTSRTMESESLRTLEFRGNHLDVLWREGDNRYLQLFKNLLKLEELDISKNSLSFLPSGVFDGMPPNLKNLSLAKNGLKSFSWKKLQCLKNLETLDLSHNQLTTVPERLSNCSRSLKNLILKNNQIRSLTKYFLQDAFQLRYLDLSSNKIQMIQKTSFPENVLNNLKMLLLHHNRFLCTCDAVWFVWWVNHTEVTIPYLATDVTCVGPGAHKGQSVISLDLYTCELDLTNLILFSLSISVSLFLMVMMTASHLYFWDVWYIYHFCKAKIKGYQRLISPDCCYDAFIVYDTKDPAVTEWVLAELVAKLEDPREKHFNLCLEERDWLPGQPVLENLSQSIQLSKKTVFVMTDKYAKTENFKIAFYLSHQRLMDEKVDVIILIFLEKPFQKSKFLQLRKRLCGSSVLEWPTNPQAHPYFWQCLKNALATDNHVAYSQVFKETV
From the text: Experimental Example 3: Agonistic Effect of the Compound of the Invention on hTLR7
In this test, the luciferase in HEK-hTLR7-NF-κB-reporter cells was detected to test the activating effect of the compound of the invention on TLR7 signaling pathway, so as to evaluate the specificity of the agonistic effect of the compound on NLRP3 pathway.
Reagents: DMEM (High glucose); FBS (fetal bovine serum) (Gibco); Bright-Glo™ Luciferase detection kit (Promega)
Cells: HEK-hTLR7-NF-κB-Luciferase gene cells (human TLR7 NF-κB-luciferase reporter gene cells) (Nanjing Cobioer)
1) The HEK-hTLR7-NF-κB-Luciferase cells in a logarithmic growth phase were trypsinized and resuspended in the medium to a concentration of 2×10^6 cells/mL. 50 μL/well of the cell resuspension was added to a 96-well plate such that the number of cells in each well was […]. An appropriate amount of 10 mM DMSO solution of the compound to be tested was taken and diluted to a concentration of 2× test concentration with the medium. 50 μL/well was added to the cells in the 96-well plate, and the 96-well plate was incubated in an incubator at 37° C. and 5% CO2 for 16 hours. The medium was DMEM (High glucose) containing 10% FBS.
2) After the cell incubation, 100 μL/well of Bright-Glo™ Luciferase detection reagent was added, and the mixture was incubated at room temperature for 5 minutes. Relative luciferase activity unit (RLU) was read using a microplate reader.
3) The EC50 of effect of the tested compound to stimulate hTLR7 was fitted by the GraphPad software log(agonist) vs. response—Variable slope four-parameter method.

T1 sequence (Q96P20 whole entry): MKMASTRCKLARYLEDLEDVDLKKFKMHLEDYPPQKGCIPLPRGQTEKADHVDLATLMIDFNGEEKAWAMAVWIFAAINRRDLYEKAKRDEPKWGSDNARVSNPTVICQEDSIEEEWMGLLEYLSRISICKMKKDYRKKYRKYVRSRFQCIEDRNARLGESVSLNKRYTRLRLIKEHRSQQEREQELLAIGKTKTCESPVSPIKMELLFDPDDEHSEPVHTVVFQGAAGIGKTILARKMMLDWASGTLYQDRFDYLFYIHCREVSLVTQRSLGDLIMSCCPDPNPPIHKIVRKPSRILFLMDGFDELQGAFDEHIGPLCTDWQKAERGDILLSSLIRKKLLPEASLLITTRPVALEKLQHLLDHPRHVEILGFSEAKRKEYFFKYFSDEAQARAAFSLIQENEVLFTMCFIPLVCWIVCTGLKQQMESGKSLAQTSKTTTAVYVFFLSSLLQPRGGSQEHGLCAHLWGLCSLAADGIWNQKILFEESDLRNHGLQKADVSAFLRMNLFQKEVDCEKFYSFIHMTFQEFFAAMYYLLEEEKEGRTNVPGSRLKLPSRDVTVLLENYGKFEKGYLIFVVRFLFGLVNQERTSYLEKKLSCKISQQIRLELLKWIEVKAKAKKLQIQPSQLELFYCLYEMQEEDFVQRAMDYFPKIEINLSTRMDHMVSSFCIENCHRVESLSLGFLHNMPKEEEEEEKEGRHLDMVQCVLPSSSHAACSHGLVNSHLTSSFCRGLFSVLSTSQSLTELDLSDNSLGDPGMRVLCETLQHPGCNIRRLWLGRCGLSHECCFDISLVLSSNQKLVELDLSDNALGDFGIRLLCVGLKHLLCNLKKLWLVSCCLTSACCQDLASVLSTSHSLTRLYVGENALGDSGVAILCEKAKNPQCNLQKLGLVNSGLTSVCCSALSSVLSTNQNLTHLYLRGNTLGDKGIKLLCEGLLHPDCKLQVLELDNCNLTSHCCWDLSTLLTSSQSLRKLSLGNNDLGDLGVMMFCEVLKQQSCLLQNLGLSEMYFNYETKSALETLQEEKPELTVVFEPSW

| SMILES | EC50 (hNLRP3 inflammasome) [µM] | pEC50 (hTLR7) |
| --- | --- | --- |
| Cc1cccc(-c2cc3nc(N)cc(NCCCO)c3s2)n1 [Compound 91, 3-((5-amino-2-(6-methylpyridin-2-yl)thieno[3,2-b]pyridin-7-yl)amino)-1-propanol] | 0.11 | < 4.00 |
| CC(=O)N1CCC(Nc2cc(N)nc3cc(-c4ccn[nH]4)sc23)CC1 [Compound 92, 1-(4-((5-amino-2-(1H-pyrazol-5-yl)thieno[3,2-b]pyridin-7-yl)amino)piperidin-1-yl)ethanone] | 1.12 | < 4.00 |
| Nc1cc(NCCCO)c2sc(-c3ccccc3)cc2n1 [Compound 93, 3-((5-amino-2-phenylthieno[3,2-b]pyridin-7-yl)amino)-1-propanol] | 0.18 | < 4.00 |
| CC[C@H](CO)Nc1cc(N)nc2cc(-c3ccn[nH]3)sc12 [Compound 95, (R)-2-((5-amino-2-(1H-pyrazol-5-yl)thieno[3,2-b]pyridin-7-yl)amino)butanol] | 0.09 | < 4.00 |
| Nc1cc(N[C@@H]2CCC[C@@H]2O)c2sc(-c3ccn[nH]3)cc2n1 [Compound 96, (1S,2R)-2-((5-amino-2-(1H-pyrazol-5-yl)thieno[3,2-b]pyridin-7-yl)amino)cyclopentanol] | 0.07 | < 4.00 |
| Nc1cc(NCC(F)(F)c2ccccn2)c2sc(-c3ccn[nH]3)cc2n1 [Compound 97, N^7-(2,2-difluoro-2-(pyridin-2-yl)ethyl)-2-(1H-pyrazol-5-yl)thieno[3,2-b]pyridine-5,7-diamine] | 0.03 | < 4.00 |
| CC1(O)CCN(CCNc2cc(N)nc3cc(-c4ccn[nH]4)sc23)CC1 [Compound 98, 1-(2-((5-amino-2-(1H-pyrazol-5-yl)thieno[3,2-b]pyridin-7-yl)amino)ethyl)-4-methylpiperidine-4-ol] | 0.35 | < 4.00 |
| CC1(O)CCN(CCCNc2cc(N)nc3cc(-c4ccn[nH]4)sc23)CC1 [Compound 99, 1-(3-((5-amino-2-(1H-pyrazol-5-yl)thieno[3,2-b]pyridin-7-yl)amino)propyl)-4-methylpiperidine-4-ol] | 0.54 | < 4.00 |
| COCCNc1cc(N)nc2cc(-c3ccn[nH]3)sc12 [Compound 100, N^7-(2-methoxyethyl)-2-(1H-pyrazol-5-yl)thieno[3,2-b]pyridine-5,7-diamine] | 0.03 | < 4.00 |
| CO[C@H](C)CNc1cc(N)nc2cc(-c3ccn[nH]3)sc12 [Compound 101, (R)—N^7-(2-methoxypropyl)-2-(1H-pyrazol-5-yl)thieno[3,2-b]pyridine-5,7-diamine] | 0.03 | < 4.00 |
| Nc1cc(NCC2CC2)c2sc(-c3ccn[nH]3)cc2n1 [Compound 102, N^7-(cyclopropylmethyl)-2-(1H-pyrazol-5-yl)thieno[3,2-b]pyridine-5,7-diamine] | 0.01 | < 4.00 |
| CN1CCC[C@@H](Nc2cc(N)nc3cc(-c4ccn[nH]4)sc23)C1 [Compound 104, (R)—N^7-(1-methylpiperidin-3-yl)-2-(1H-pyrazol-5-yl)thieno[3,2-b]pyridine-5,7-diamine] | 0.17 | < 4.00 |
| Nc1cc(NC[C@@H]2CCCO2)c2sc(-c3ccn[nH]3)cc2n1 [Compound 105, (S)-2-(1H-pyrazol-5-yl)-N^7-((tetrahydrofuran-2-yl)methyl)thieno[3,2-b]pyridine-5,7-diamine] | 0.03 | < 4.00 |
| Cn1cc(CNc2cc(N)nc3cc(-c4ccn[nH]4)sc23)cn1 [Compound 106, N^7-(1-methyl-1H-pyrazol-4-yl)methyl-2-(1H-pyrazol-5-yl)thieno[3,2-b]pyridine-5,7-diamine] | 0.04 | < 4.00 |
| C[C@@H](CO)Nc1cc(N)nc2cc(-c3ccn[nH]3)sc12 [Compound 108, (S)-2-((5-amino-2-(1H-pyrazol-5-yl)thieno[3,2-b]pyridin-7-yl)amino)propanol] | 0.34 | < 4.00 |
| Cn1cc(-c2cc3nc(N)cc(NCCCO)c3s2)cn1 [Compound 109, 3-((5-amino-2-(1-methyl-1H-pyrazol-4-yl)thieno[3,2-b]pyridin-7-yl)amino)-1-propanol] | 4.48 | < 4.00 |
| Nc1cc(NC2CCCC2)c2sc(-c3ccn[nH]3)cc2n1 [Compound 110, N^7-cyclopentyl-2-(1H-pyrazol-5-yl)thieno[3,2-b]pyridine-5,7-diamine] | 0.02 | < 4.00 |
| COC(C)(C)CNc1cc(N)nc2cc(-c3ccn[nH]3)sc12 [Compound 111, N^7-(2′-methoxy-2′-methylpropyl)-2-(1H-pyrazol-5-yl)thieno[3,2-b]pyridine-5,7-diamine] | 0.23 | < 4.00 |
| Nc1cc(NC2COC2)c2sc(-c3ccn[nH]3)cc2n1 [Compound 112, N^7-(oxetan-3-yl)-2-(1H-pyrazol-5-yl)thieno[3,2-b]pyridine-5,7-diamine] | 0.28 | < 4.00 |
| CCC(CC)Nc1cc(N)nc2cc(-c3ccn[nH]3)sc12 [Compound 113, N^7-(pent-3-yl)-2-(1H-pyrazol-5-yl)thieno[3,2-b]pyridine-5,7-diamine] | 0.03 | < 4.00 |
| Nc1cc(NC2CCC(O)CC2)c2sc(-c3ccn[nH]3)cc2n1 (stereo not shown) [Compound 114, 4-((5-amino-2-(1H-pyrazol-5-yl)thieno[3,2-b]pyridin-7-yl)amino)-1-cyclohexanol] | 0.06 | < 4.00 |
| CC(C)(CO)CNc1cc(N)nc2cc(-c3ccn[nH]3)sc12 [Compound 115, 3-((5-amino-2-(1H-pyrazol-5-yl)thieno[3,2-b]pyridin-7-yl)amino)-2,2-dimethyl-1-propanol] | 0.04 | < 4.00 |
| Nc1cc(NCC(F)F)c2sc(-c3ccn[nH]3)cc2n1 [Compound 116, N^7-(2,2-difluoroethyl)-2-(1H-pyrazol-5-yl)thieno[3,2-b]pyridine-5,7-diamine] | 0.03 | < 4.00 |
